Assays:
[1] = system: HER2^+ metastases and DCCs; assay: Sequential Abemaciclib then LY4 treatment of MMTV-HER2 mice; type: in vivo, mouse; conditions: Abemaciclib 50 mpk 4 weeks; LY4 50 mpk
Experimental: (§1) Mice, tumor growth, and tissue processing: The FVB/N-Tg (MMTVneu) mouse strain was obtained from Jackson Laboratories (Sacramento, Calif.). […] Before being used in any experiment, females underwent one round of pregnancy and at least two weeks of no lactation after weaning. Females between 24-32 weeks of age were injected intraperitoneally with vehicle (90% corn oil, 10% ethanol) or LY4 (50 mpk) daily, for two weeks. For the combination treatment, females 24-32 weeks of age were treated daily by oral gavage with Abemaciclib (50 mpk) for 4 weeks before starting the treatment described earlier with LY4. Tumor volumes were measured using the formula (Dxd^2)/2, where D is the longest and d is the shortest diameter. For CTC count, animals were anesthetized and whole blood was extracted by cardiac puncture. Mammary glands, lungs, and tumors were collected and fixed in 10% buffered formalin overnight before paraffin embedding. The bone marrow from the two lower limbs was flushed with a 26 G needle and further processed by Ficoll density gradient centrifugation. For CTC as well as for DTC detection in bone marrow, tissues were depleted of mature hematopoietic cells by anti-mouse antibody-labeled magnetic bead separation (Miltenyi Biotec, San Diego, Calif.) before fixation in formalin for 20 minutes at 4° C.

[2] = system: HER2 in MCF10A-HER2 cells; assay: HER2 signaling Western blot and surface biotinylation/endocytosis assays; type: cell-based, human; conditions: 2 μM
Source text: Immunoblot analysis: Cells were lysed in RIPA buffer and protein analyzed by immunoblotting as described previously (Ranganathan et al., “Functional Coupling of p38-Induced Up-Regulation of BiP and Activation of RNA-Dependent Protein Kinase-Like Endoplasmic Reticulum Kinase to Drug Resistance of Dormant Carcinoma Cells,” Cancer Res. 66:1702-1711 (2006), which is hereby incorporated by reference in its entirety). Membranes were blotted using the additional following antibodies: P-PERK (T982) (Tenkerian et al., “mTORC2 Balances AKT Activation and eIF2alpha Serine 51 Phosphorylation to Promote Survival Under Stress,” Mol. Cancer Res. 13:1377-1388 (2015), which is hereby incorporated by reference in its entirety), PERK (Santa Cruz, Dallas, Tex.), P-EGFR(Y1148), EGFR, P-AKT(S473), P-S6 (S235/236) (Cell signaling, Danvers, Mass.), GAPDH (Millipore, Darmstadt, Germany), and β-Tubulin (Abcam, Cambridge, Mass.). For induction of ER stress, MCF10A-HER2 cells were plated in low adhesion plates for 24 hours before collection.
Cell surface biotinylation and endocytosis assay: For cell surface biotinylation, Pierce cell surface protein isolation kit was used following manufacturer's instructions with minor changes. Briefly, MCF10A-HER2 cells were serum- and EGF-starved and treated+/−LY4 for 24 hours before being stimulated with +/−EGF (100 ng/ml) for 20′. Then, cells were washed with ice-cold PBS and surface proteins biotinylated for 30 minutes at 4° C. After quenching, cells were harvested and lysed using RIPA buffer. Protein lysates were incubated with NeutrAvidin agarose beads and the bound proteins were released by incubation with SDS-PAGE sample buffer containing DTT (50 mM). For endocytosis assays (Cihil et al., “The Cell-Based L-Glutathione Protection Assays to Study Endocytosis and Recycling of Plasma Membrane Proteins,” J. Vis. Erp. e50867 (2013), which is hereby incorporated by reference in its entirety), cells were treated similarly but before treatment with EGF cell surface proteins were biotinylated. After 20 minute incubation+/−EGF (100 ng/ml) at 37° C. […]

[3] = system: MCF10A-HER2 cells; assay: Cell viability dose-response (Cell Titer Blue) with or without thapsigargin; type: cell-based; conditions: Homo sapiens, 48 hours, absence or presence of thapsigargin 2 nM, dashed line of FIG. 2D
Experimental: Reagents, cell culture, and treatments: EGF was obtained from PeproTech (Rocky Hill, N.J.) and used at 100 ng/ml. Thapsigargin was from Sigma (St. Louis, Mo.) and used at 2 nM. The ZR75.1-H2B-Dendra2 cell line was generated by stable transfection of the H2B-Dendra2 plasmid (Gurskaya et al., “Engineering of a Monomeric Green-to-Red Photoactivatable Fluorescent Protein Induced by Blue Light,” Nat. Biotechnol. 24:461-465 (2006), which is hereby incorporated by reference in its entirety). For 3D cultures, MCF10A-HER2, SKBR3, and ZR75.1-H2B-Dendra2 cells were plated in growth factor-reduced Matrigel (Corning, Corning, N.Y.) and grown as described previously (Avivar-Valderas et al., “Regulation of Autophagy during ECM Detachment is Linked to a Selective Inhibition of mTORC1 by PERK,” Oncogene 32(41):4932-40 (2013), which is hereby incorporated by reference in its entirety). When referring to “low density,” 3,500 cells/8-well were seeded, and for “high density” 20,000 cells/8-well. Treatments with vehicle (DMSO) or LY4 (2 μM) were replaced every 24 hours for 2D and every 48 hours for 3D cultures.

[4] = Tolerability in MMTV-HER2 female mice; type: in vivo, mouse
Experimental: as §1

Cc1cc(NC(=O)[C@H](O)c2cc(F)cc(F)c2)ccc1-c1cnc(N)c(C(=O)NC(C)C)c1 [LY4, 2-amino-5-[4-[[(2R)-2-(3,5-difluorophenyl)-2-hydroxy-acetyl]amino]-2-methyl-phenyl]-N-isopropyl-pyridine-3-carboxamide]
GADD34 in primary tumor sections [1]: eliminated the expression of GADD34 | P-HER2 and total HER2 on the cell surface (surface biotinylation) [2]: decreased the amount of P-HER2 and total HER2 in the cell surface | endocytosed phospho-HER2 and total HER2 (reversible surface biotinylation) [2]: increasing endocytosed phospho-HER2 and total HER2 | P-EGFR, P-HER2, P-AKT, P-S6, P-ERK1/2 levels (Western blot) ([2]; starved cells +/- EGF 100 ng/ml, 15 minutes): decreased both the basal and EGF-induced levels of P-EGFR and P-HER2 | IC50 [3]: ~9 nM | bone marrow cell homeostasis and peripheral blood white cells (total cell counts) ([4]; 50 mpk i.p. daily, two weeks): no effect on total cell counts | tolerability, body weight ([4]; 50 mpk i.p. daily, two weeks): well tolerated, with no significant changes in body weight | glucose levels, blood cell counts, drinking and feeding behavior ([4]; doses of LY4 used, non-tumor or cancer bearing mice): did not significantly affect glucose levels, bone marrow, or peripheral blood cell counts, drinking and feeding behavior
